Like-named read-outs stand apart in the source and are kept apart here.
Legend:
Type in all cases: in vivo
[1] = system: Blattella germanica (cockroach nymphs); assay: Residual test on cockroach nymphs (BG/R), Plastic pot, mortality; settings: 72 h, 3 days, read-out: BG/R grading of mortality
Procedure: The activity of the Product was determined using a variety of insect pests. The Product was used in the form of liquid preparations containing 500, 250 or 100 parts per million (ppm) by weight of the Product. The preparations were made by dissolving the Product in acetone and diluting the solutions with water containing 0.01% by weight of a wetting agent sold under the trade name "LISSAPOL" NX until the liquid preparations contained the required concentration of the Product. "Lissapol" is a Registered Trade Mark.
The test procedure adopted with regard to each pest was basically the same and comprised supporting a number of the pests on a medium which was usually a host plant or a foodstuff on which the pests feed, and treating either or both the pests and the medium with the preparations. The mortality of the pests was then assessed at periods usually varying from one to three days after the treatment.
The results of the tests are given in Table III for each of the Products, at the rate in parts per million given in the second column as a grading of mortality designated as A, B or C wherein A indicates 80-100% mortality or knockdown, B indicates 50-79% mortality or knockdown and C indicates less than 50% mortality or knockdown.
BG/R Blattella germanica

[2] = system: Musca domestica (houseflies - adults); assay: Knockdown test on houseflies - adults (MD/KD), Cotton wool/sugar; settings: 500 ppm, 4 hours, read-out: MD/KD grading of knockdown
How it was run: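 Adult houseflies exposed to the compound at 500, 250 or 100 ppm in acetone/water with 0.01% wetting agent, on a cotton wool/sugar medium. Knockdown and mortality assessed, graded A (80-100%), B (50-79%) or C (<50%).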

[3] = system: Diabrotica balteata (rootworm larvae); assay: Residual test on rootworm larvae (DB), Filter paper/maize seed, mortality; settings: 48 h, 500 ppm, residual, * test duration of 3 days, read-out: DB grading of mortality
How it was run: (§1)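 Product dissolved in acetone, diluted in water with 0.01% wetting agent to 500, 250 or 100 ppm; pests and/or host medium (plant or foodstuff) treated. Mortality or knockdown assessed 1–3 days later, graded A (80–100%), B (50–79%) or C (<50%).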

[4] = system: Tetranychus urticae (spider mites - ova); assay: Contact test on spider mites - ova (TUe), French bean leaf, mortality; settings: 144 h, 500 ppm, contact, 6 days, read-out: TUe grading of mortality
How it was run: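 Graded read-out: A 80-100%, B 50-79%, C below 50% mortality or knockdown, assessed usually 1-3 days post-treatment. Liquid preparations at 500, 250 or 100 ppm by weight, from acetone solution diluted in water with 0.01% wetting agent, applied to pests and/or their host plant or food medium.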

[5] = system: Spodoptera exigua (lesser army worm - larvae); assay: Residual test on lesser army worm larvae (SP), Cotton leaf, mortality; settings: 48 h, 500 ppm, residual, * test duration of 3 days, read-out: SP grading of mortality
How it was run: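 Product dissolved in acetone and diluted in water with 0.01% wetting agent to 500, 250 or 100 ppm; larvae and/or cotton leaf host treated. Mortality or knockdown scored one to three days later and graded A (80-100%), B (50-79%) or C (<50%).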

[6] = system: Musca domestica (houseflies - adults); assay: Contact test on houseflies - adults (MD), Cotton wool/sugar, mortality; settings: 500 ppm, contact, read-out: MD grading of mortality
How it was run: as §1

[7] = system: Tetranychus urticae (spider mites - adult); assay: Contact test on spider mites - adult (TUa), French bean leaf, mortality; settings: 72 h, 500 ppm, contact, 3 days, read-out: TUa grading of mortality
How it was run: as §1

[8] = system: Nephotettix cincticeps (green leaf hopper - nymphs); assay: Contact test on green leaf hopper nymphs (NC), Rice plant, mortality; settings: 72 h, 500 ppm, contact, * test duration of 3 days, read-out: NC grading of mortality
How it was run: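 Product dissolved in acetone, diluted in water with 0.01% wetting agent to 500, 250 or 100 ppm; nymphs and/or host rice plants treated. Mortality or knockdown assessed 1–3 days later, graded A (80-100%), B (50-79%), C (<50%).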

[9] = system: Heliothis virescens (tobacco budworm - larvae); assay: Residual test on tobacco budworm larvae (HV), Cotton leaf, mortality; settings: 48 h, read-out: HV grading of mortality
How it was run: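 Product in acetone diluted with water containing 0.01% Lissapol NX, at 500, 250 or 100 ppm; pests and/or host medium (here cotton leaf) treated. Mortality scored one to three days later, graded A (80-100%), B (50-79%), C (<50%).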

Myzus persicae (aphids) = assay: Contact test on aphids (MP), Chinese Cabbage leaf, mortality; settings: 72 h, 500 ppm, contact, 3 days, read-out: MP grading of mortality
How it was run: as §1

[10] = 24 h, ** test duration of 1 day

C=CCc1c(F)c(F)c(COC(=O)C(c2cnc(C(F)(F)F)nc2)C(C)C)c(F)c1F (racemic) [Compound 114, 2,3,5,6-tetrafluoro-4-(prop-2-en-1-yl)benzyl (RS)-2-(2-trifluoromethylpyrimidin-5-yl)-3-methylbutanoate]
80 to 100%: mortality at 500 ppm [1] | pest or weed control at 500 ppm [2] | mortality at 500 ppm [3] | mortality at 500 ppm [4] | mortality at 500 ppm [5] | mortality at 500 ppm ([6]; 72 h, 3 days) | mortality at 500 ppm [7] | mortality at 500 ppm [8] | mortality at 500 ppm [9] | mortality at 500 ppm (Myzus persicae (aphids))

C=CCc1c(F)c(F)c(COC(=O)C(c2cnc(C)nc2)C(C)C)c(F)c1F (racemic) [Compound 119]
80 to 100%: mortality at 500 ppm [1] | pest or weed control at 500 ppm [2] | mortality at 500 ppm [3] | mortality at 500 ppm [5] | mortality at 500 ppm [6, 10] | mortality at 500 ppm [7] | mortality at 500 ppm [8] | mortality at 500 ppm (Myzus persicae (aphids))
< 50%: mortality at 500 ppm [4] | mortality at 500 ppm [9]

COCc1c(F)c(F)c(COC(=O)C(c2cnc(C(C)(C)C)nc2)C(C)(C)C)c(OC)c1F (racemic) [Compound 16, 2,3,5-trifluoro-6-methoxy-4-(methoxymethyl)benzyl (RS)-2-[2-(1,1-dimethylethyl)pyrimidin-5-yl]-3,3-dimethylbutanoate]
80 to 100%: pest or weed control at 500 ppm [2] | mortality at 500 ppm [4] | mortality at 500 ppm [5] | mortality at 500 ppm [6, 10] | mortality at 500 ppm [9] | mortality at 500 ppm (Myzus persicae (aphids))
50 to 79%: mortality at 500 ppm [1]
< 50%: mortality at 500 ppm [3] | mortality at 500 ppm [7]

C#CCc1c(F)c(F)c(COC(=O)C(c2cnc(C(F)(F)F)nc2)C(C)C)c(F)c1F (racemic) [Compound 87, 2,3,5,6-tetrafluoro-4-(prop-2-yn-1-yl)benzyl (RS)-2-(2-trifluoromethylpyrimidin-5-yl)-3-methylbutanoate]
80 to 100%: mortality at 500 ppm [1] | pest or weed control at 500 ppm [2] | mortality at 500 ppm [3] | mortality at 500 ppm [4] | mortality at 500 ppm [5] | mortality at 500 ppm [6, 10] | mortality at 500 ppm [7] | mortality at 500 ppm (Myzus persicae (aphids))
50 to 79%: mortality at 500 ppm [8] | mortality at 500 ppm [9]

C#CCc1c(F)c(F)c(COC(=O)C(c2cnc(C(C)(C)C)nc2)C(C)(C)C)c(F)c1F (racemic) [Compound 12, 2,3,5,6-tetrafluoro-4-(prop-2-yn-1-yl)benzyl (RS)-2-[2-(1,1-dimethylethyl)pyrimidin-5-yl]-3,3-dimethylbutanoate]
80 to 100%: mortality at 500 ppm [1] | pest or weed control at 500 ppm [2] | mortality at 500 ppm [3] | mortality at 500 ppm [4] | mortality at 500 ppm [5] | mortality at 500 ppm [6, 10] | mortality at 500 ppm [7] | mortality at 500 ppm [8] | mortality at 500 ppm [9] | mortality at 500 ppm (Myzus persicae (aphids))

COCc1c(F)c(F)c(COC(=O)C(c2cnc(C(C)(C)C)nc2)C2CC2)c(OC)c1F (racemic) [Compound 92, 3,5,6-trifluoro-2-methoxy-4-(methoxymethyl)benzyl (RS)-2-[2-(1,1-dimethylethyl)pyrimidin-5-yl]-2-cyclopropylacetate]
< 50%: mortality at 500 ppm [1] | mortality at 500 ppm [3] | mortality at 500 ppm [4]
80 to 100%: pest or weed control at 500 ppm [2] | mortality at 500 ppm [5] | mortality at 500 ppm [6, 10] | mortality at 500 ppm [7] | mortality at 500 ppm [8] | mortality at 500 ppm [9] | mortality at 500 ppm (Myzus persicae (aphids))

COCc1c(F)c(F)c(COC(=O)C(c2cnc(C)nc2)C(C)C)c(F)c1F (racemic) [Compound 214, 4-(methoxymethyl)-2,3,5,6-tetrafluoroenzyl (RS)-2-(2-methylpyrimidin-5-yl)-3-methylbutanoate]
80 to 100%: mortality at 500 ppm [1] | pest or weed control at 500 ppm [2] | mortality at 500 ppm [5] | mortality at 500 ppm [7] | mortality at 500 ppm [8] | mortality at 500 ppm (Myzus persicae (aphids))
50 to 79%: mortality at 500 ppm [6, 10]
< 50%: mortality at 500 ppm [3] | mortality at 500 ppm [4] | mortality at 500 ppm [9]

From US4962109A, “Insecticidally and acaricidally active pyrimidine esters and intermediates therefor” (Imperial Chemical Industries PLC, priority 1985, dated 1990)
